The target in one experiment is T1, human TLR8 (Homo sapiens, UniProt Q9NR97).
T1 construct: host or cells: HEK-Blue cells
T1 sequence (Q9NR97 27-1041): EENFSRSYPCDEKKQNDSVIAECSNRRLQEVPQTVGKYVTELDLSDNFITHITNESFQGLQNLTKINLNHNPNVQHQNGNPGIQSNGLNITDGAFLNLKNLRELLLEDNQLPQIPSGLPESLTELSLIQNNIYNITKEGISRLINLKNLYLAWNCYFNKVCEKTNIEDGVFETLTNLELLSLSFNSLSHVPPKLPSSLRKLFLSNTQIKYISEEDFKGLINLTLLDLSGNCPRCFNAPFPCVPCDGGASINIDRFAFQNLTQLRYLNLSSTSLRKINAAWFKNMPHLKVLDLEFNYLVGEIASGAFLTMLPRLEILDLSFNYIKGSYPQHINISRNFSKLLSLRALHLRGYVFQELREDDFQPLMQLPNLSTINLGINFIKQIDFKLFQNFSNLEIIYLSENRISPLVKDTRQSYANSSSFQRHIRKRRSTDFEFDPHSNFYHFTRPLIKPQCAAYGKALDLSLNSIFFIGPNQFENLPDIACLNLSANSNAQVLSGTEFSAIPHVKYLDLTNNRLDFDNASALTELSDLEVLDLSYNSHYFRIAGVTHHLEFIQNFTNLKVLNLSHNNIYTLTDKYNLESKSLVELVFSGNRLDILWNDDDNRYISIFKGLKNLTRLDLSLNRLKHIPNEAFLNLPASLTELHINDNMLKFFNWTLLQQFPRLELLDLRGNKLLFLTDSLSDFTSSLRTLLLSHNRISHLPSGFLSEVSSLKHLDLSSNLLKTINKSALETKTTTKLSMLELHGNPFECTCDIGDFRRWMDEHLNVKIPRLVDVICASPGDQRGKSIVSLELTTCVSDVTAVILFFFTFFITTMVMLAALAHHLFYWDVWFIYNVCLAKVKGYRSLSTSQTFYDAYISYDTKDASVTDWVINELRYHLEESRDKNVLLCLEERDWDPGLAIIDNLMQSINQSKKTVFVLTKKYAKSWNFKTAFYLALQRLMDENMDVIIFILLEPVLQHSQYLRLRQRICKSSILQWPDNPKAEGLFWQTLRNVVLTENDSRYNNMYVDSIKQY
Kind of experiment: TLR8 inhibition reporter assay (HEK-Blue SEAP). It is filed as cell-based. Conditions: HEK-Blue cells overexpressing human TLR8, R848 15.9 μM, 22 hour incubation. The method, then:
(§1) TLR7/8/9 Inhibition Reporter Assays
HEK-Blue™-cells (Invivogen) overexpressing human TLR7, TLR8 or TLR9 receptors were used for screening inhibitors of these receptors using an inducible SEAP (secreted embryonic alkaline phosphatase) reporter gene under the control of the IFN-β minimal promoter fused to five NF-κB and AP-1-binding sites. Briefly, cells are seeded into Greiner 384 well plates (15000 cells per well for TLR7, 20,000 for TLR8 and 25,000 for TLR9) and then treated with test compounds in DMSO to yield a final dose response concentration range of 0.05 nM-50 μM. After a 30 minute compound pre-treatment at room temperature, the cells are then stimulated with a TLR7 ligand (gardiquimod at a final concentration of 7.5 μM), TLR8 ligand (R848 at a final concentration of 15.9 μM) or TLR9 ligand (ODN2006 at a final concentration of 5 nM) to activate NF-κB and AP-1 which induce the production of SEAP. After a 22 hour incubation at 37° C., 5% CO2, SEAP levels are determined with the addition of HEK-Blue™ Detection reagent (Invivogen), a cell culture medium that allows for detection of SEAP, according to manufacturer's specifications. The percent inhibition is determined as the % reduction in the HEK-Blue signal present in wells treated with agonist plus DMSO alone compared to wells treated with a known inhibitor.

For the next experiment, the target named is T2, human TLR7 (Homo sapiens, UniProt Q9NYK1).
T2 construct: host or cells: HEK-Blue cells
T2 sequence (Q9NYK1 27-1049): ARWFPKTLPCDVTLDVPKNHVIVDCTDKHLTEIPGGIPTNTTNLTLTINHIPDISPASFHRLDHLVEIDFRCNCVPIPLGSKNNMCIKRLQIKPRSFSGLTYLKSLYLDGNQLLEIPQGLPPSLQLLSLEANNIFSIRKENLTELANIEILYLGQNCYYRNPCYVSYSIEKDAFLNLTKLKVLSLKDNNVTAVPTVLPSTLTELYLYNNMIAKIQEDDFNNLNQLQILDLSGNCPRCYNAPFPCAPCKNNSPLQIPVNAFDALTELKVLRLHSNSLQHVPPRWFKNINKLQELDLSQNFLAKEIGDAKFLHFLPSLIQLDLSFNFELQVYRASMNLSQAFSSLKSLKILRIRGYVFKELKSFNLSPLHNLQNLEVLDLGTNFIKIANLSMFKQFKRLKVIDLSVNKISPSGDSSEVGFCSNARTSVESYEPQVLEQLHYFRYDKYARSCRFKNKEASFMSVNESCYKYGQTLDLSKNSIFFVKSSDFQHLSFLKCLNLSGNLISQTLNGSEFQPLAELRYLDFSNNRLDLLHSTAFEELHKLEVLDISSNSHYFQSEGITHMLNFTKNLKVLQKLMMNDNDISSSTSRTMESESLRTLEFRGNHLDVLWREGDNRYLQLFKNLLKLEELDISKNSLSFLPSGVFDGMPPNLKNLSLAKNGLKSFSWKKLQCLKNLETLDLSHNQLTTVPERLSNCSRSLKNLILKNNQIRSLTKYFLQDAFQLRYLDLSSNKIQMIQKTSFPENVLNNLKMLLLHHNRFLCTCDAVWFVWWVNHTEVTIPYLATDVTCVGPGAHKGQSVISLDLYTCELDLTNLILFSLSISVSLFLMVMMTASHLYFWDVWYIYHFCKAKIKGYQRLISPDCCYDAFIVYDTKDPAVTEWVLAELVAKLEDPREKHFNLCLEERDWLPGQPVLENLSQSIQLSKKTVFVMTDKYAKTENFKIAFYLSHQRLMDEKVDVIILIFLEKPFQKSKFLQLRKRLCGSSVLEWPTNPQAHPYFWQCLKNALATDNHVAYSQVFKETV
Kind of experiment: TLR7 inhibition reporter assay (HEK-Blue SEAP). It is filed as cell-based. Particulars: HEK-Blue cells overexpressing human TLR7, gardiquimod 7.5 μM, 22 hour incubation. How it is done:
as §1
Briefly, cells are seeded into Greiner 384 well plates (15000 cells per well for TLR7, 20,000 for TLR8 and 25,000 for TLR9) and then treated with test compounds in DMSO to yield a final dose response concentration range of 0.05 nM-50 μM. […] After a 22 hour incubation at 37° C., 5% CO2, SEAP levels are determined with the addition of HEK-Blue™ Detection reagent (Invivogen), a cell culture medium that allows for detection of SEAP, according to manufacturer's specifications. The percent inhibition is determined as the % reduction in the HEK-Blue signal present in wells treated with agonist plus DMSO alone compared to wells treated with a known inhibitor.
In general terms: A reporter such as luciferase makes a cellular process visible.

Take `CCC(CC)CN1CCC[C@@H](n2c(=O)[nH]c3cc(-c4cc(OC)c5ncnn5c4)c(C(C)C)cc32)C1` [Example 148, (R)-1-(1-(2-ethylbutyl)piperidin-3-yl)-6-isopropyl-5-(8-methoxy-[1,2,4]triazolo[1,5-a]pyridin-6-yl)-1,3-dihydro-2H-benzo[d]imidazol-2-one]: the IC50 (usually the concentration that inhibits the measured activity by half) at human TLR8 turned out to be 1.09 nM; against human TLR7, 0.49 nM.

For the compound `COc1cc(-c2cc3[nH]c(=O)n(C4CCN(CC(C)C)CC4)c3cc2C(C)C)cn2ncnc12` [Example 164, 1-(1-isobutylpiperidin-4-yl)-6-isopropyl-5-(8-methoxy-[1,2,4]triazolo[1,5-a]pyridin-6-yl)-1,3-dihydro-2H-benzo[d]imidazol-2-one], the half-maximal inhibitory concentration (IC50) at human TLR8 was determined as 9.67 nM; on human TLR7 it was 12.3 nM.

With `COc1cc(-c2cc3[nH]c(=O)n([C@@H]4CCCN(CC5CC5)C4)c3cc2C(C)C)cn2ncnc12` [Example 142, (R)-1-(1-(cyclopropylmethyl)piperidin-3-yl)-6-isopropyl-5-(8-methoxy-[1,2,4]triazolo[1,5-a]pyridin-6-yl)-1,3-dihydro-2H-benzo[d]imidazol-2-one], the IC50 on human TLR8 was 2.2 nM; at human TLR7, 0.64 nM.

In the case of `CCN1CCC[C@@H](n2c(=O)[nH]c3cc(-c4cc(OC)c5ncnn5c4)c(C(F)(F)F)cc32)C1` [Example 110, (R)-1-(1-ethylpiperidin-3-yl)-5-(8-methoxy-[1,2,4]triazolo[1,5-a]pyridin-6-yl)-6-(trifluoromethyl)-1,3-dihydro-2H-benzo[d]imidazol-2-one], the IC50 was found to be 4.06 nM against human TLR8 and 16.8 nM on human TLR7.

In the case of `CCN1CCC(n2c(=O)[nH]c3cc(-c4cc(C)c5ncnn5c4)cc(C)c32)CC1` [Example 108, 1-(1-ethylpiperidin-4-yl)-7-methyl-5-(8-methyl-[1,2,4]triazolo[1,5-a]pyridin-6-yl)-1,3-dihydro-2H-benzo[d]imidazol-2-one], the IC50 against human TLR8 came to 83.1 nM; on human TLR7, 11.5 nM.

As for `Cc1c(-c2cc3[nH]c(=O)n([C@@H]4CCCN(CC5CCOCC5)C4)c3cc2C(C)C)cn2ncnc2c1C` [Example 149, (R)-5-(7,8-dimethyl-[1,2,4]triazolo[1,5-a]pyridin-6-yl)-6-isopropyl-1-(1-((tetrahydro-2H-pyran-4-yl)methyl)piperidin-3-yl)-1,3-dihydro-2H-benzo[d]imidazol-2-one], the IC50 against human TLR8 stood at 4.58 nM; at human TLR7 it was 3.97 nM.

Take `COCCN1CCC[C@@H](n2c(=O)[nH]c3cc(-c4cc(OC)c5ncnn5c4)c(C(F)(F)F)cc32)C1` [Example 118, (R)-5-(8-methoxy-[1,2,4]triazolo[1,5-a]pyridin-6-yl)-1-(1-(2-methoxyethyl)piperidin-3-yl)-6-(trifluoromethyl)-1,3-dihydro-2H-benzo[d]imidazol-2-one]: the IC50 on human TLR8 was determined as 22.7 nM; at human TLR7, 26.5 nM.

For `Cc1cc2c(cc1-c1cc(C)c3ncnn3c1)[nH]c(=O)n2C1CCN(C(=O)CN(C)C)CC1` [Example 101, 1-(1-(dimethylglycyl)piperidin-4-yl)-6-methyl-5-(8-methyl-[1,2,4]triazolo[1,5-a]pyridin-6-yl)-1,3-dihydro-2H-benzo[d]imidazol-2-one], the IC50 against human TLR8 amounted to 50.3 nM; at human TLR7, 173 nM.

In the case of `COc1cc(-c2cc3[nH]c(=O)n([C@H]4CCCN(CC5CCC5)C4)c3cc2C(C)C)cn2ncnc12` [Example 133, (S)-1-(1-(cyclobutylmethyl)piperidin-3-yl)-6-isopropyl-5-(8-methoxy-[1,2,4]triazolo[1,5-a]pyridin-6-yl)-1,3-dihydro-2H-benzo[d]imidazol-2-one], the results for the half-inhibitory concentration (IC50) against human TLR8 and against human TLR7 were 5.9 nM and 17.3 nM, respectively.

Take `COc1cc(-c2cc3[nH]c(=O)n([C@@H]4CCCN(C(C)C)C4)c3cc2C(C)C)cn2ncnc12` [Example 137, (R)-6-isopropyl-1-(1-isopropylpiperidin-3-yl)-5-(8-methoxy-[1,2,4]triazolo[1,5-a]pyridin-6-yl)-1,3-dihydro-2H-benzo[d]imidazol-2-one]: the IC50 against human TLR8 amounted to 1.37 nM; at human TLR7, 0.74 nM.

(Values after patent US12187723B2 (BRISTOL-MYERS SQUIBB COMPANY, priority 2019, dated 2025).)
